A short description of series [1]: Sucrose self-administration. The note with it: pretreatment (±)-29 15 and 25 mg/kg, (±)-19 1 and 5 mg/kg. The format is in vivo.
Series [2] is described as follows: Pharmacokinetics in rats after oral administration. The format is in vivo, rat. The conditions noted are these: 10 mg/kg oral. The protocol:
Male Long-Evans rats with body weights ˜250 grams (Charles River Laboratories, Raleigh, NC, USA) were used in this study. All rats were housed individually in a climate-controlled room under a 12 h light/dark cycle. Food and water were available ad libitum throughout the experiments. All experimental procedures were conducted in accordance with the Guide for the Care and Use of Laboratory Animals and were approved by the Animal Care and Use Committee of the National Institute on Drug Abuse of the U.S. National Institutes of Health. Experimental (oral gavage) procedures: The animals were gently restrained (grasp the animal by the loose skin of the neck and back) to immobilize the head but not such that the animals vocalize or show other signs of distress. Maintained the animal in an upright (vertical) position and passed the gavage needle (19-gauge) along the side of the mouth. Following the roof of the mouth, advanced the needle into the esophagus and toward the stomach. After the needle was passed to the correct length, the compound was injected. […] A volume of 3 μL was injected onto the ultra-performance liquid chromatography (UPLC) instrument for quantitative analysis using a temperature-controlled autosampler operating at 10° C. […] Quantification was performed in multiple-reaction monitoring (MRM) mode. […]

Series [3] can be described thus: Phase I metabolic stability in monkey liver microsomes. In kind it is in vitro ADME, rhesus monkey. The note with it: monkey liver microsomes, Phase I. The protocol: Methods: Phase I metabolic stability assay was conducted in rat and rhesus monkey liver microsomes. For phase I metabolism, the reaction was carried out with 100 mM potassium phosphate buffer, pH 7.4, in the presence of NADPH regenerating system (1.3 mM NADPH, 3.3 mM glucose 6-phosphate, 3.3 mM MgCl2, 0.4 U/mL glucose-6-phosphate dehydrogenase, 50 μM sodium citrate). Reactions in triplicate were initiated by addition of the liver microsomes to the incubation mixture (compound final concentration was 10 μM; 0.5 mg/mL microsomes). Negative controls in the absence of cofactors were carried out to determine the specific cofactor-free degradation. Compound disappearance was monitored via LC/MS/MS. Chromatographic analysis was performed using an Accela™ ultra high-performance system consisting of an analytical pump, and an autosampler coupled with TSQ Vantage mass spectrometer (Thermo Fisher Scientific Inc., Waltham MA). […] The mobile phase used was composed of 0.1% Formic Acid in Acetonitrile and 0.1% Formic Acid in H2O with gradient elution, starting with 10% (organic) linearly increasing to 99% up to 2 min, maintaining at 99% (2-2.5 min) and re-equilibrating to 10% by 2.7 min. The total run time for each analyte was 5.0 min.
A general note: Liver microsomes are a subcellular fraction often used to study metabolism.

In a further series the target is T1, human D3R (Homo sapiens, UniProt P35462).
T1 construct: expressed in transfected cells; host or cells: HEK293
As to the kind of experiment: Radioligand competition binding, [3H]N-methylspiperone, D3R. The note with it: Table 1A; ratio of Ki values. The protocol: Binding at dopamine D2-like receptors was determined using previously described methods. […] Upon reaching 80-90% confluence, cells were harvested using pre-mixed Earle's Balanced Salt Solution (EBSS) with 5 μM EDTA (Life Technologies) and centrifuged at 3000 rpm for 10 min at 21° C. The supernatant was removed and the pellet was resuspended in 10 mL hypotonic lysis buffer (5 mM MgCl2·6H2O, 5 mM Tris, pH 7.4 at 4° C.) and centrifuged at 20,000 rpm for 30 min at 4° C. The pellet was then resuspended in fresh EBSS buffer made from 8.7 g/L Earle's Balanced Salts without phenol red (US Biological, Salem, MA), 2.2 g/L sodium bicarbonate, pH to 7.4. A Bradford protein assay (Bio-Rad, Hercules, CA) was used to determine the protein concentration and membranes were diluted to 500 μg/mL and stored in a −80° C. freezer for later use.
Radioligand competition binding experiments were conducted using thawed membranes. Test compounds were freshly dissolved in 30% DMSO and 70% H2O to a stock concentration of 100 μM. To assist the solubilization of free-base compounds, 10 μl of glacial acetic acid was added along with the DMSO. Each test compound was then diluted into 13 half-log serial dilutions using 30% DMSO vehicle; final test concentrations ranged from 10 μM to 10 pM. Previously frozen membranes were diluted in fresh EBSS to a 100 μg/mL (for hD2R or hD3R) or 200 μg/mL (hD4R) stock for binding. Radioligand competition experiments were conducted in glass tubes containing 300 μl fresh EBSS buffer with 0.2 mM sodium metabisulfite, 50 μl of diluted test compound, 100 μl of membranes (10 μg total protein for hD2R or hD3R, 20 μg total protein for hD4R), and 50 μl of [^3H]N-methylspiperone (0.4 nM final concentration; Perkin Elmer). Nonspecific binding was determined using 10 μM butaclamol (Sigma-Aldrich, St. Louis, MO) and total binding was determined with 30% DMSO vehicle. All compound dilutions were tested in triplicate and the reaction incubated for one hour at room temperature. The reaction was terminated by filtration through Whatman GF/B filters, presoaked for one hour in 0.5% polyethylenimine, using a Brandel R48 filtering manifold (Brandel Instruments, Gaithersburg, MD). The filters were washed 3 times with 3 mL of ice cold EBSS buffer and transferred to scintillation vials. […] IC50 values for each compound were determined from dose-response curves and Ki values were calculated using the Cheng-Prusoff equation; these analyses were performed using GraphPad Prism version 5.00 for Windows (GraphPad Software, San Diego, CA). Reported Ki values were determined from least three independent experiments.
(In general: Loss of bound radioactivity is the signal in a displacement assay; it reports binding, not function.)

The target of a further series is T2, human D2R (Homo sapiens, UniProt P14416).
T2 construct: expressed in transfected cells; host or cells: HEK293
Description: Radioligand competition binding, [3H]N-methylspiperone, D2R. The conditions noted are these: Table 1A; ratio of Ki values. The protocol:
Binding at dopamine D2-like receptors was determined using previously described methods. (Chen et al. “Tranylcypromine substituted cis-hydroxycyclobutylnaphthamides as potent and selective dopamine D(3) receptor antagonists.” J. Med. Chem. 2014, 57, 4962-4968) Membranes were prepared from HEK293 cells expressing human D2R, D3R or D4R, grown in a 50:50 mix of DMEM and Ham's F12 culture media, supplemented with 20 mM HEPES, 2 mM L-glutamine, 0.1 mM non-essential amino acids, 1× antibiotic/antimycotic, 10% heat-inactivated fetal bovine serum, and 200 μg/mL hygromycin (Life Technologies, Grand Island, NY) and kept in an incubator at 37° C. and 5% CO2. Upon reaching 80-90% confluence, cells were harvested using pre-mixed Earle's Balanced Salt Solution (EBSS) with 5 μM EDTA (Life Technologies) and centrifuged at 3000 rpm for 10 min at 21° C. The supernatant was removed and the pellet was resuspended in 10 mL hypotonic lysis buffer (5 mM MgCl2·6H2O, 5 mM Tris, pH 7.4 at 4° C.) and centrifuged at 20,000 rpm for 30 min at 4° C. The pellet was then resuspended in fresh EBSS buffer made from 8.7 g/L Earle's Balanced Salts without phenol red (US Biological, Salem, MA), 2.2 g/L sodium bicarbonate, pH to 7.4. A Bradford protein assay (Bio-Rad, Hercules, CA) was used to determine the protein concentration and membranes were diluted to 500 μg/mL and stored in a −80° C. freezer for later use.
Radioligand competition binding experiments were conducted using thawed membranes. Test compounds were freshly dissolved in 30% DMSO and 70% H2O to a stock concentration of 100 μM. To assist the solubilization of free-base compounds, 10 μl of glacial acetic acid was added along with the DMSO. Each test compound was then diluted into 13 half-log serial dilutions using 30% DMSO vehicle; final test concentrations ranged from 10 μM to 10 pM. Previously frozen membranes were diluted in fresh EBSS to a 100 μg/mL (for hD2R or hD3R) or 200 μg/mL (hD4R) stock for binding. Radioligand competition experiments were conducted in glass tubes containing 300 μl fresh EBSS buffer with 0.2 mM sodium metabisulfite, 50 μl of diluted test compound, 100 μl of membranes (10 μg total protein for hD2R or hD3R, 20 μg total protein for hD4R), and 50 μl of [^3H]N-methylspiperone (0.4 nM final concentration; Perkin Elmer). Nonspecific binding was determined using 10 μM butaclamol (Sigma-Aldrich, St. Louis, MO) and total binding was determined with 30% DMSO vehicle. All compound dilutions were tested in triplicate and the reaction incubated for one hour at room temperature. The reaction was terminated by filtration through Whatman GF/B filters, presoaked for one hour in 0.5% polyethylenimine, using a Brandel R48 filtering manifold (Brandel Instruments, Gaithersburg, MD). The filters were washed 3 times with 3 mL of ice cold EBSS buffer and transferred to scintillation vials. 3 mL CytoScint liquid scintillation cocktail (MP Biomedicals, Solon, OH) was added and vials were counted using a Perkin Elmer Tri-Carb 2910 TR liquid scintillation counter (Waltham, MA). IC50 values for each compound were determined from dose-response curves and Ki values were calculated using the Cheng-Prusoff equation; these analyses were performed using GraphPad Prism version 5.00 for Windows (GraphPad Software, San Diego, CA). Reported Ki values were determined from least three independent experiments.

The next series deals with T3, human dopamine D3R (Homo sapiens, UniProt P35462).
T3 construct: expressed in transfected cells; host or cells: CHO
As to the kind of experiment: D3R mitogenesis assay in CHO cells. In kind it is cell-based. The conditions noted are these: stimulation of mitogenesis, CHO cells with human D3R; read-out: Agonist EC50 ± SEM.

T2 sequence (P14416 whole entry): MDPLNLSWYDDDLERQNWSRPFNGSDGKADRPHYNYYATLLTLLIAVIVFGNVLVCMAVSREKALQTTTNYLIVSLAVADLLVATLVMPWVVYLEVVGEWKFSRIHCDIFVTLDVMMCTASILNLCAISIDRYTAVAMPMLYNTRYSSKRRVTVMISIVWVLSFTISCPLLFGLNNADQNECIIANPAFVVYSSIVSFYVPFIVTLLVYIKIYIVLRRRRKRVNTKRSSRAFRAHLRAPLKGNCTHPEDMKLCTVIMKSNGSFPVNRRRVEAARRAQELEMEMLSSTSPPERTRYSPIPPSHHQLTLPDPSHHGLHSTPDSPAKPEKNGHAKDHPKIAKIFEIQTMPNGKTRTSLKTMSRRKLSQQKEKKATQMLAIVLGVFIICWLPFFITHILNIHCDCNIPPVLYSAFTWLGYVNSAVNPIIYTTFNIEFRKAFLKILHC
T3 sequence (P35462 whole entry): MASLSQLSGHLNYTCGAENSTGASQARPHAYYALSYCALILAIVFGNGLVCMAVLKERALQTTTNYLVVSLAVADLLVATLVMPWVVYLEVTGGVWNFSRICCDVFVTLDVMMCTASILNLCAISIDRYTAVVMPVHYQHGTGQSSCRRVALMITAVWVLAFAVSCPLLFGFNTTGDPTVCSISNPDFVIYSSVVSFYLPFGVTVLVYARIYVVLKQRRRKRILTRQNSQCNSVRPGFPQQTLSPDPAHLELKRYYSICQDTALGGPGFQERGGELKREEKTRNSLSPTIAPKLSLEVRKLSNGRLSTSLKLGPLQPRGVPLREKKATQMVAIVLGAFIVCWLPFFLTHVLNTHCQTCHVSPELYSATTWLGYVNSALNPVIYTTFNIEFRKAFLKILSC
T1 sequence (P35462 whole entry): as above

With `CCc1cccc(N2CCN(CC(O)CCNC(=O)c3cc4ccccc4[nH]3)CC2)c1Cl` (racemic) [Compound 19, N-(4-(4-(2-chloro-3-ethylphenyl)piperazin-1-yl)-3-hydroxybutyl)-1H-indole-2-carboxamide], the sucrose self-administration result in series [1] is “no significant effects on sucrose self-administration”.
Regarding `CCc1cc(Cl)c(OC)c(N2CCN(C[C@H](O)CCNC(=O)c3cc4ccccc4[nH]3)CC2)c1` [(R)-29, (R)—N-(4-(4-(3-chloro-5-ethyl-2-methoxyphenyl)piperazin-1-yl)-3-hydroxybutyl)-1H-indole-2-carboxamide], the “exposures in brain and plasma, R- versus S-enantiomer” value in series [2] (FIG. 12A) is “twice higher exposures in both brain and plasma”. Besides, the “% at 30 min.” value in series [3] (30 min) worked out at 9%. Moreover, the “% at 60 min.” value in series [3] (60 min) is listed as 4%.
Take `CCc1cccc(N2CCN(C[C@@H](O)CCNC(=O)c3cc4ccccc4[nH]3)CC2)c1Cl` [(S)-19, (S)—N-(4-(4-(2-chloro-3-ethylphenyl)piperazin-1-yl)-3-hydroxybutyl)-1H-indole-2-carboxamide]: the Kp in series [2] (male, Long-Evans, rat, brain and plasma, read-out: brain/plasma ratio) turned out to be 6.
Regarding `CCc1cc(Cl)c(OC)c(N2CCN(CCCCNC(=O)c3cc4ccccc4[nH]3)CC2)c1` [Compound 28, N-(4-(4-(3-Chloro-5-ethyl-2-methoxyphenyl)piperazin-1-yl)butyl)-1H-indole-2-carboxamide], the D4/D3 at human D3R is recorded as 3065. Also, the D4/D2 at human D2R came out at 38. Moreover, at human dopamine D3R, the EC50 – broadly, the concentration at which the effect is half-maximal – was more than 8.3 µM.
For `CCc1cc(Cl)c(OC)c(N2CCN(CCCCNC(=O)c3cc4ccccc4o3)CC2)c1` [Compound 30, N-(4-(4-(3-Chloro-5-ethyl-2-methoxyphenyl)piperazin-1-yl)butyl)benzofuran-2-carboxamide] the same measures were 224, 5.2 and more than 6.6 µM.

These data come from patent US12162861B2, “Dopamine D3 receptor selective antagonists/partial agonists; method of making; and use thereof” (THE UNITED STATES OF AMERICA, AS REPRESENTED BY THE …, priority 2016, dated 2024).
